Measurements published in patent US11945822B2, “Pyrazolo-triazine and/or pyrazolo-pxrimidine derivatives as selective inhibitor of cyclin dependent kinase” (QURIENT CO., LTD., priority 2018, dated 2024).

Key:
[1] = molecular target: T1, CDK1/Cyclin B (Homo sapiens, UniProt P06493); assay: Enzymatic assay for CDK1 (FRET based LANCE Ultra kinase assay); format: biochemical; details: read-out: CDK1 enzymatic activity (IC50 range)
T1 construct: purchased Invitrogen PR4768C
Method in brief: (§1)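 TR-FRET (LANCE Ultra) kinase assay at ATP Km, ULight-MBP peptide substrate (68 nM), 8-dose 4-fold compound series in DMSO. Enzymes: […]; 60 min at 23° C., stopped with EDTA plus Eu-anti-phospho-MBP antibody, read 665/615 nm after 60 min.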

[2] = molecular target: T2, CDK7/Cyclin H/MNAT1 (Homo sapiens, UniProt P50613); assay: Enzymatic assay for CDK7 (FRET based LANCE Ultra kinase assay); format: biochemical
T2 construct: purchased Invitrogen PR6749B
Method in brief: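 Inhibition was measured at Km ATP by time-resolved FRET between a Eu anti-phospho antibody and a phosphorylated ULight peptide. The enzyme was the purified CDK7/cyclin complex, and data were curve-fitted.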

[3] = molecular target: T3, CDK5/p25 (Homo sapiens, UniProt Q00535); assay: Enzymatic assay for CDK5 (FRET based LANCE Ultra kinase assay); format: biochemical; details: read-out: CDK5 enzymatic activity (IC50 range)
T3 construct: purchased Invitrogen PR8543B
Method in brief: as §1

[4] = tested on: A2780; assay: Cellular A2780 viability assay (CellTiter-Glo, 72 hours); format: cell-based; details: Homo sapiens
Method in brief: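 Compound exposure lasted 72 h at 37° C, 5% CO2, over 0.0015–10 uM, DMSO kept under 0.1%, with dosing 24 h after seeding. Seeding: A2780 1×10^3, OVCAR-3 5×10^3, MM.1S 1×10^4 cells/well in 10% FBS RPMI-1640. Duplicate CellTiter-Glo luminescence readout.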

[5] = tested on: HCT116; assay: Cellular HCT116 viability assay (CellTiter-Glo, 72 hours); format: cell-based; details: Homo sapiens, HCT-116
Method in brief: (§2)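 Mycoplasma-tested cells, seeded at densities chosen for each line, received compound or DMSO vehicle (under 0.1% final) for 72 hours. Duplicate cultures were then read for viability by CellTiter-Glo luminescence.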

[6] = molecular target: T4, CDK2/Cyclin A (Homo sapiens, UniProt P24941); assay: Enzymatic assay for CDK2 (FRET based LANCE Ultra kinase assay); format: biochemical; details: read-out: CDK2 enzymatic activity (IC50 range)
T4 construct: purchased Invitrogen PV6290
Method in brief: as §1

[7] = tested on: MV4-11; assay: Cellular MV4-11 viability assay (CellTiter-Glo, 72 hours); format: cell-based; details: Homo sapiens
Method in brief: as §2

T2 sequence (P50613 whole entry): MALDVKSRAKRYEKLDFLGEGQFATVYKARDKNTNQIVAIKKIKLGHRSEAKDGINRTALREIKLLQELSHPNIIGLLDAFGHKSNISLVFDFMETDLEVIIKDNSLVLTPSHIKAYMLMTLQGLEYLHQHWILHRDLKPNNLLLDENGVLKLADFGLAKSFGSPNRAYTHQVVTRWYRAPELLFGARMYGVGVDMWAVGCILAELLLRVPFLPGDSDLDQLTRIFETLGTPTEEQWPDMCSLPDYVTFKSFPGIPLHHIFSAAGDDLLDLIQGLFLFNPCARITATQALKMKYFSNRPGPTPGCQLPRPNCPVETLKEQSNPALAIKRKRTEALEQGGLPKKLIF
T2 sequence (P51946 whole entry partner): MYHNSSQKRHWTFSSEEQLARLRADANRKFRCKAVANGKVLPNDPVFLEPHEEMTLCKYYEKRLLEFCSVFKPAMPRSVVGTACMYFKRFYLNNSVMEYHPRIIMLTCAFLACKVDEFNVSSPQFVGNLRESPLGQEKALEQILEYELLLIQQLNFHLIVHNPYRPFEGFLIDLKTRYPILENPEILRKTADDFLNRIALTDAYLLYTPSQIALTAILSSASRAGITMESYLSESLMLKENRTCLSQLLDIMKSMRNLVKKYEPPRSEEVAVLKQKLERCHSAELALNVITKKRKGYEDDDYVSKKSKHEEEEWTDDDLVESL
T2 sequence (P51948 whole entry partner): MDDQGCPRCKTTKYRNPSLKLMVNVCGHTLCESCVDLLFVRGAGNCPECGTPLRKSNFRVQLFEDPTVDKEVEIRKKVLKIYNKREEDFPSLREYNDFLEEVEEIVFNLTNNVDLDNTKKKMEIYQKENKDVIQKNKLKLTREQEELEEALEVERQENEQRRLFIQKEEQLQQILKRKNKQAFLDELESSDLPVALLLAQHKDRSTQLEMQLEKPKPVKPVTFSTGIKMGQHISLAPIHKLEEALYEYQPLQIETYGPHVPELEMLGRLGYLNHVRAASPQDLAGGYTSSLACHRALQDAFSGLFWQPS
T3 sequence (Q00535 whole entry): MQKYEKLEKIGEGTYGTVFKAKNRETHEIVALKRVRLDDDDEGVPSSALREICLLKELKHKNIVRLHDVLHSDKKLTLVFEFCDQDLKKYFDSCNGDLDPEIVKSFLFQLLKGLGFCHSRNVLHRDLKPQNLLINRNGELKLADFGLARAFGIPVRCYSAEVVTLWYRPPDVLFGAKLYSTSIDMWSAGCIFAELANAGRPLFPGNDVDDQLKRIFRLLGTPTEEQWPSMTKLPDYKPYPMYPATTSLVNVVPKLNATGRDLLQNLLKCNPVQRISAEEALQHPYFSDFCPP
T3 sequence (Q15078 99-307 partner limits assumed): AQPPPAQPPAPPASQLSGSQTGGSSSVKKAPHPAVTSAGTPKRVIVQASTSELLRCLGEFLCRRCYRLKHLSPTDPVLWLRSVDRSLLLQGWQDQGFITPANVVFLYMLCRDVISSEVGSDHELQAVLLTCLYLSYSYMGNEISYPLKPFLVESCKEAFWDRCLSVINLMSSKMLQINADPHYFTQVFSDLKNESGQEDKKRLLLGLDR
T1 sequence (P06493 whole entry): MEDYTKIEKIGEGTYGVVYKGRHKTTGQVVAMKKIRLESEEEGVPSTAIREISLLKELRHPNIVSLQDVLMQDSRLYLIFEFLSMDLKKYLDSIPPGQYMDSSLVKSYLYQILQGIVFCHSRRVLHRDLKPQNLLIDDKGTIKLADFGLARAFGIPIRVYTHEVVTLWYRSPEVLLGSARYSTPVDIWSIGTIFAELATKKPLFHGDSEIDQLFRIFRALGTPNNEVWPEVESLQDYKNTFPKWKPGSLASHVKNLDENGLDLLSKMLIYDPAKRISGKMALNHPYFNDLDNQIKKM
T1 sequence (P14635 whole entry partner): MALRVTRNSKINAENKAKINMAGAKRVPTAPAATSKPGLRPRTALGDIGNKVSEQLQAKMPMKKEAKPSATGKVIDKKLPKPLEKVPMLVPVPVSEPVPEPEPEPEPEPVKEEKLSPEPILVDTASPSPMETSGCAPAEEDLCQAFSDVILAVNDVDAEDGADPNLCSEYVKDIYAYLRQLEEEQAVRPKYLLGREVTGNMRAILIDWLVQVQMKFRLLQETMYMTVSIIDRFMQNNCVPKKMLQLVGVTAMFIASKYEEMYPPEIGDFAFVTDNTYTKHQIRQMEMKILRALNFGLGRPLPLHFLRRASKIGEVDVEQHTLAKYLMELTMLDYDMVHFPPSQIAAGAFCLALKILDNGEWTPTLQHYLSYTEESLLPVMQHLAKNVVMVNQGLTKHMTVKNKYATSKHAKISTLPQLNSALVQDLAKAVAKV

CC(C)c1cnn2c(NCc3c(Cl)cccc3-n3ccc(C(C)(C)O)n3)nc(N3CCC(N)CC3)nc12 [Compound 210]
IC50 [1]: > 1000 nM
CDK1/CDK7: Selectivity of CDK7 inhibition over CDK1 inhibition ([2]; CDK7 over CDK1): A (A=greater than 200 fold)
CDK2/CDK7: Selectivity of CDK7 inhibition over CDK2 inhibition ([2]; CDK7 over CDK2): A (A=greater than 200 fold)
CDK5/CDK7: Selectivity of CDK7 inhibition over CDK5 inhibition ([2]; CDK7 over CDK5): A (A=greater than 200 fold)
IC50 ([2]; read-out: CDK7 enzymatic activity (IC50 range)): < 100 nM
IC50 [3]: 100 to 1000 nM
IC50 [4]: ≤ 1000 nM
IC50 [5]: < 1000 nM
IC50 [6]: > 1000 nM
IC50 [7]: < 1000 nM
